Measured values published in patent US12473289B2, “Heterocyclic compounds as delta-5 desaturase inhibitors and methods of use” (Amgen Inc., priority 2019, dated 2025).

Legend:
Delta-5-Desaturase (D5D) [1] = target: Delta-5-Desaturase (D5D) (Homo sapiens (Human), UniProt O60427); test: In vitro measurement of Delta-5-Desaturase inhibitory activity using DGLA-CoA and Arachidonyl-CoA mass spectrometric assays; type: biochemical; details: membrane preparations of D5D-overexpressing HEK293 6E cells; averaged over at least two independent runs
Delta-5-Desaturase (D5D) (Homo sapiens (Human), UniProt O60427), sequence (O60427 whole entry, species assumed): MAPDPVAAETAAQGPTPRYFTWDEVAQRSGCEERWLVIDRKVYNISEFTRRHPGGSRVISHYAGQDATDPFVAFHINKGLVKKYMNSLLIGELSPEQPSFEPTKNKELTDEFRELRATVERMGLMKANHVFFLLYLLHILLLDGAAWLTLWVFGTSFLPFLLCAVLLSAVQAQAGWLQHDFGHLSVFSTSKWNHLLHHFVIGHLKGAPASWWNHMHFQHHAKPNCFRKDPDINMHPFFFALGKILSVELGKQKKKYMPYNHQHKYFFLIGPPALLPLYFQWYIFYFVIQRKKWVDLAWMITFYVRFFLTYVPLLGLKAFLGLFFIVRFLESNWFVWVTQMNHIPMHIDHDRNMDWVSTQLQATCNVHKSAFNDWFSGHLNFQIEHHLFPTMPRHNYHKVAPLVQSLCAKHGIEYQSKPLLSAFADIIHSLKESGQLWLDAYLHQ
Outline: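 DGLA-CoA and arachidonyl-CoA were read by RapidFire SPE triple-quad MS (negative mode, MRM) after a 1 h ambient-temperature reaction quenched with acetonitrile. Enzyme was D5D-overexpressing HEK293 6E membranes at 10 μg/mL final; substrate solution held 0.01 mM DGLA plus NADH, ATP and CoA. Inhibition was referenced to DMSO and no-enzyme wells; 4PL IC50.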

Delta-5-Desaturase (D5D) [2] = target: Delta-5-Desaturase (D5D) (Mus musculus (Mouse), UniProt Q920L1); test: In vivo measurement of Delta-5-Desaturase inhibitory activity (plasma AA/DGLA ratio in DIO mice); details: single oral dose 30 mg/kg, read-out: Average % D5D Inhibition expressed as Plasma Endogenous AA/DGLA Ratio
Delta-5-Desaturase (D5D) (Mus musculus (Mouse), UniProt Q920L1), sequence (Q920L1 whole entry): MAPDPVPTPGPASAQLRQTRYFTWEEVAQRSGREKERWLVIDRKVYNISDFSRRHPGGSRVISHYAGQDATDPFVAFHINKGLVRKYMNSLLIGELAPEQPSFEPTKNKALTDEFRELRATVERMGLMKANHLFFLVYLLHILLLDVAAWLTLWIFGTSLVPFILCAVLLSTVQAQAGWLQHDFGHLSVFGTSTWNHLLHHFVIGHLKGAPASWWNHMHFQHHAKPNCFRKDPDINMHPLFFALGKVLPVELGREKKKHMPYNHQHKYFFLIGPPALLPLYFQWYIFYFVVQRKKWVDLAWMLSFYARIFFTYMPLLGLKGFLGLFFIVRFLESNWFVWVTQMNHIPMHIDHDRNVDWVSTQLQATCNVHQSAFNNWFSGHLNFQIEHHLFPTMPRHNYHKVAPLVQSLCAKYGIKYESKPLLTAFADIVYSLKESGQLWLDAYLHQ
Experimental: In vivo Measurement of Delta-5-Desaturase Inhibitory Activity
Diet-induced obese (DIO; Jackson Laboratories strain #3800050) mice were used to screen for pharmacodynamic (PD) activity of test compounds. Generally, 14 to 24 week old DIO mice, were administered test compounds formulated in the vehicle of 2% hydroxypropyl methylcellulose (HPMC) and 1% Tween80. Animals were dosed on body weight by oral gavage with a single dose (30 mg/kg) for PD studies. Necropsy included plasma collection for PUFA analysis. 10 μl of plasma or standards diluted in surrogate matrix (65 g/l bovine serum albumin in Dulbecco's phosphate-buffered saline) were mixed with 10 μl of an internal standard (100 μM alpha-linolenic acid-d14 (ALA-d14, Cayman Chemical)) in a 96 well plate. 100 μl of 2N NAOH was added to the mixture for subsequent saponification at 65° C. for 1 hour. The mixture was then acidified with 50 μl of formic acid followed by two consecutive hexane extractions. Hexane (500 μl) was added and the mixture thoroughly mixed by vortexing, followed by centrifugation at 4,000 rpm for 15 min. The hexane phase was transferred to a new 1 ml 96 well plate and the remaining aqueous layer was extracted with hexane. The organic extracts were combined and the solvent was removed by placing the plate under nitrogen gas at 55° C. 250 μl of 90% methanol was added to the plate followed by vortexing for 2 minutes. 200 μl of the samples were transferred to a new 96 well polypropylene plate. The samples were analyzed on a LC-MS/MS for the following PUFAs: arachidonic acid (AA), dihomo-gamma-linolenic acid (DGLA), with ALA-d14 as the internal standard. Description of the LC-MS/MS method: 5 μl of sample was injected onto a Poroshell 120 EC-C18 3.0×50 mm, 1.9 μm id column. […] The PUFA peak areas were quantified by using the SCIEX Analyst software. […] The relative decrease of the AA/DGLA ratio of the test compound administered group relative to the vehicle administered group was calculated and used as an index for the degree of D5D inhibition.
The results presented in Table 27 were obtained using certain compounds described herein in the in vivo protocol described above.

SMILES	IC50 (Delta-5-Desaturase (D5D) [1]) [nM]	inhibition in vivo at 30 mg/kg (Delta-5-Desaturase (D5D) [2]) [%]
CCOc1nc2cc(OC)ccn2c(=O)c1-c1ccc(OCC(F)(F)F)cc1 [Example 1-81, 2-ethoxy-8-methoxy-3-(4-(2,2,2-trifluoroethoxy)phenyl)-4H-pyrido[1,2-a]pyrimidin-4-one]	12.9	44
O=c1ccn2c(=O)c(-c3cnn(CC(F)(F)C(F)(F)F)c3)c(C(F)(F)F)nc2[nH]1 [Example 10-4, 7-(1-(2,2,3,3,3-pentafluoropropyl)-1H-pyrazol-4-yl)-8-(trifluoromethyl)-2H-pyrimido[1,2-a]pyrimidine-2,6(1H)-dione]	68.4	52
COc1ccn2c(=O)c(-c3ccc(O[C@@H](C)C#N)cc3)c(C(F)(F)F)nc2c1 [Example 8-9, (2S)-2-(4-(8-methoxy-4-oxo-2-(trifluoromethyl)-4H-pyrido[1,2-a]pyrimidin-3-yl)phenoxy)propanenitrile]	11.6	79
COc1ccn2c(=O)c(-c3ccc(OCC(F)F)cc3F)c(C(F)(F)F)nc2c1 [Example 1-41, 3-(4-(2,2-difluoroethoxy)-2-fluorophenyl)-8-methoxy-2-(trifluoromethyl)-4H-pyrido[1,2-a]pyrimidin-4-one]	24.9	63
O=c1c(-c2cnn(CC(F)(F)C(F)(F)F)c2)c(C(F)(F)F)nc2cc(CO)ccn12 [Example 13-1, 8-(Hydroxymethyl)-3-(1-(2,2,3,3,3-pentafluoropropyl)-1H-pyrazol-4-yl)-2-(trifluoromethyl)-4H-pyrido[1,2-a]pyrimidin-4-one]	23.9	52
COc1ccn2c(=O)c(-c3ccc(OC(F)(F)F)cc3F)c(C(F)(F)F)nc2c1 [Example 1-9, 3-(2-fluoro-4-(trifluoromethoxy)phenyl)-8-methoxy-2-(trifluoromethyl)-4H-pyrido[1,2-a]pyrimidin-4-one]	–	35
O=c1c(-c2ccc(OCC(F)(F)F)cc2)c(C(F)(F)F)nc2ccccn12 [Example 1-42, 3-(4-(2,2,2-trifluoroethoxy)phenyl)-2-(trifluoromethyl)-4H-pyrido[1,2-a]pyrimidin-4-one]	10.4	64
COc1cc2nc(C(F)(F)F)c(-c3cnn(C[C@H]4CC4(F)F)c3)c(=O)n2cc1F [Example 71, 3-(1-(((1R)-2,2-difluorocyclopropyl)methyl)-1H-pyrazol-4-yl)-7-fluoro-8-methoxy-2-(trifluoromethyl)-4H-pyrido[1,2-a]pyrimidin-4-one]	31.7	–
CC(=O)Nc1ccn2c(=O)c(-c3cnn(CC(F)(F)C(F)(F)F)c3)c(C(F)(F)F)nc2c1 [Example 1-82, N-(4-oxo-3-(1-(2,2,3,3,3-pentafluoropropyl)-1H-pyrazol-4-yl)-2-(trifluoromethyl)-4H-pyrido[1,2-a]pyrimidin-8-yl)acetamide]	56	–
COc1ccn2c(=O)c(-c3nc(OCC(F)(F)F)cs3)c(C(F)(F)F)nc2c1 [Example 51, 8-Methoxy-3-[4-(2,2,2-trifluoroethoxy)-1,3-thiazol-2-yl]-2-(trifluoromethyl)-4H-pyrido[1,2-a]pyrimidin-4-one]	2980	–
Cc1cnn2c(=O)c(-c3cnn(CC4CC4(F)F)c3)c(C(F)(F)F)nc2c1 (stereo not drawn) [Example 39-53, 3-{1-[(2,2-difluorocyclopropyl)methyl]-1H-pyrazol-4-yl}-8-methyl-2-(trifluoromethyl)-4H-pyrimido[1,2-b]pyridazin-4-one]	369	–
COc1ccn2c(=O)c(-c3cnn(CC4CC4(F)F)c3)c(C(F)(F)F)nc2c1 (racemic) [Example 39-42, 3-{1-[(2,2-difluorocyclopropyl)methyl]-1H-pyrazol-4-yl}-8-methoxy-2-(trifluoromethyl)-4H-pyrido[1,2-a]pyrimidin-4-one]	11.4	–
O=c1c(-c2ccc(OCC(F)(F)F)cc2)c(C(F)(F)F)nc2cc(-c3ncco3)ccn12 [Example 29, 8-(1,3-Oxazol-2-yl)-3-(4-(2,2,2-trifluoroethoxy)phenyl)-2-(trifluoromethyl)-4H-pyrido[1,2-a]pyrimidin-4-one]	97.1	–
COc1ccn2c(=O)c(-c3cnn(CCC(F)(F)F)c3)c(C(F)(F)F)nc2n1 [Example 2-4, 8-methoxy-2-(trifluoromethyl)-3-(1-(3,3,3-trifluoropropyl)-1H-pyrazol-4-yl)-4H-pyrimido[1,2-a]pyrimidin-4-one]	57.4	–
COc1ccn2c(=O)c(-c3cnn(-c4ccccc4)c3)c(C(F)(F)F)nc2c1 [Example 1-47, 8-methoxy-3-(1-phenyl-1H-pyrazol-4-yl)-2-(trifluoromethyl)-4H-pyrido[1,2-a]pyrimidin-4-one]	5.4	–
COc1ccn2c(=O)c(-c3ccc(OCC#N)cc3)c(C(F)(F)F)nc2n1 [Example 1-40, (4-(8-methoxy-4-oxo-2-(trifluoromethyl)-4H-pyrimido[1,2-a]pyrimidin-3-yl)phenoxy)acetonitrile]	18.6	–
COc1ccn2c(=O)c(-c3ccc(OCC(F)(F)C(F)F)cc3)c(C(F)(F)F)nc2c1 [Example 9-1, 8-Methoxy-3-(4-(2,2,3,3-tetrafluoropropoxy)phenyl)-2-(trifluoromethyl)-4H-pyrido[1,2-a]pyrimidin-4-one]	11.1	–
CCCn1cc(-c2c(C(F)(F)F)nc3cc(OC)ccn3c2=O)cn1 [Example 1-76, 8-methoxy-3-(1-propyl-1H-pyrazol-4-yl)-2-(trifluoromethyl)-4H-pyrido[1,2-a]pyrimidin-4-one]	17.6	–

Now from value to compound:

IC50 (Delta-5-Desaturase (D5D) [1]) [nM]	inhibition in vivo at 30 mg/kg (Delta-5-Desaturase (D5D) [2]) [%]	SMILES
7.9	75	COc1ccn2c(=O)c(-c3ccc(OCC(F)F)cc3)c(C(F)(F)F)nc2c1 [Example 1-10, 3-(4-(2,2-difluoroethoxy)phenyl)-8-methoxy-2-(trifluoromethyl)-4H-pyrido[1,2-a]pyrimidin-4-one]
12.5	57	COc1ccn2c(=O)c(-c3ccc(OCC(F)(F)F)cc3)c(OC)nc2c1 [Example 1-80, 2,8-dimethoxy-3-(4-(2,2,2-trifluoroethoxy)phenyl)-4H-pyrido[1,2-a]pyrimidin-4-one]
3.4	76	COc1ccn2c(=O)c(-c3ccc(OCC(F)(F)F)cc3)c(C(F)(F)F)nc2c1 [Example 1-44, 8-methoxy-3-(4-(2,2,2-trifluoroethoxy)phenyl)-2-(trifluoromethyl)-4H-pyrido[1,2-a]pyrimidin-4-one]
–	66	Nc1ccn2c(=O)c(-c3ccc(OCC(F)(F)F)cc3)c(C(F)(F)F)nc2c1 [Example 6-2, 8-amino-3-(4-(2,2,2-trifluoroeth-oxy)phenyl)-2-(trifluoromethyl)-4H-pyrido[1,2-a]pyrimidin-4-one]
5.7	–	COc1ccn2c(=O)c(-c3ccc(OC[C@H]4CC4(F)F)cc3)c(C(F)(F)F)nc2c1 [Example 1-83, 3-(4-(((1R)-2,2-Difluorocyclopropyl)methoxy)phenyl)-8-methoxy-2-(trifluoromethyl)-4H-pyrido[1,2-a]pyrimidin-4-one]
5.2	–	NC(=O)c1ccn2c(=O)c(-c3ccc(OCC(F)(F)F)cc3)c(C(F)(F)F)nc2c1 [Example 12-2, 4-oxo-3-(4-(2,2,2-trifluoroethoxy)phenyl)-2-(trifluoromethyl)-4H-pyrido[1,2-a]pyrimidine-8-carboxamide]
10100	–	CS(=O)(=O)c1ccn2c(=O)c(-c3ccc(OCC(F)(F)F)cc3)c(C(F)(F)F)nc2c1 [Example 19, 8-(Methylsulfonyl)-3-(4-(2,2,2-trifluoroethoxy)phenyl)-2-(trifluoromethyl)-4H-pyrido[1,2-a]pyrimidin-4-one]
4	–	COc1ccn2c(=O)c(-c3ccc(OCC(F)(F)C(F)(F)F)cc3)c(C(F)(F)F)nc2c1 [Example 22, 8-Methoxy-3-(4-(2,2,3,3,3-pentafluoropropoxy)phenyl)-2-(trifluoromethyl)-4H-pyrido[1,2-a]pyrimidin-4-one]
111	–	O=c1c(-c2ccc(OCC(F)(F)F)cc2)c(C(F)(F)F)nc2cc(C3CC3)ccn12 [Example 4-2, 8-cyclopropyl-3-(4-(2,2,2-trifluoroethoxy)phenyl)-2-(trifluoromethyl)-4H-pyrido[1,2-a]pyrimidin-4-one]
